Experiments:
Assay type in all cases: cell-based
[1] = system: lymphocytes obtained from the blood of healthy cats and cats with IBD; assay: in vitro lymphocyte proliferation assay (BrdU ELISA, PHA-stimulated); settings: 40 h
Procedure: The study utilizes eleven healthy cats and eleven cats with IBD, The cats with IBD are diagnosed by an intestinal biopsy, and have a history of chronic diarrhea. For six weeks, all cats are fed a nutritionally adequate dry food indicated for gastrointestinal distress. Blood is drawn from all cats at four, five, and six weeks. Samples with equal amounts of lymphocytes are used in an in vitro lymphocyte proliferation assay.
More specifically, 4.5 ml blood is mixed with 4.5 ml HBSS (Hank's Balanced Salt Solution)+25 mM HEPES. 4 ml of Ficoll-Paque Plus (Amersham) are slowly injected under the diluted blood. The mixture is centrifuged for twenty minutes at 500 g at 25° C. The upper layer is discarded. The lymphocytes are transferred into a clean tube, resuspended in 6 ml of HBSS+25 mM HEPES, and then centrifuged for ten minutes at 200 g at 25° C. The supernatant is discarded, and the lymphocytes are washed with 6 ml of HBSS. This centrifugation and wash step is repeated two more times. The washed lymphocytes are then resuspended in 5 ml of AIM medium (Invitrogen). Samples with 200,000 lymphocytes in 100 μl of AIM medium are used for the lymphocyte proliferation assay.
The lymphocyte proliferation assay is performed utilizing Amersham's Biotrak cell proliferation ELISA system, version 2. Lymphocyte samples are incubated in a 96-well plate with 7 μg/ml PHA (phytohemagglutinin) in the absence or presence of 12.5 μM and 25 μM DHA or EPA in a 37° C. incubator with 5% CO2 and 90% humidity for forty hours. After that, 20 μl of 100 μM BrdU is added, and the samples are incubated for two hours at 37° C. The plates are then removed from the incubator and centrifuged at 300 g for ten minutes at 25° C. The medium is removed by tapping and blotting, and the cells are dried in a chemical fume hood for at least fifteen minutes. 200 μl of fixative is added to every well and the plate is incubated for thirty minutes at room temperature. The cell fixative is removed by tapping and blotting. 200 μl of blocking buffer are added to every well, and the plate is incubated for thirty minutes at room temperature. The blocking buffer is removed by tapping and blotting, and 100 μl of anti-BrdU working solution is added to each well and incubated for ninety minutes at room temperature. The anti-BrdU solution is removed by tapping and blotting, and each well is rinsed three times with 300 μl washing solution. 100 μl 3.3′,5,5′-tetamethylbenzidine is added to each well and incubated for ten minutes or until color intensity is achieved. 25 μl 1M sulfuric acid is added to stop the reaction, and the plate is read on a fusion microplate reader (PerkinElmer) within five minutes.

IL-1α = assay: cytokine expression by RT-PCR in PHA-stimulated lymphocytes: IL-1α; settings: PHA + 12.5 μM, healthy cats (no PHA) = 1
Procedure: (§1) Lymphocytes are obtained from the blood of healthy cats and cats with IBD as described in Example 1 and then treated with DHA or EPA also as described in Example 1. Ribonucleic acid (RNA) is extracted from all samples, and real time polymerase chain reaction (RT-PCR) is performed to examine the changes in the level of expression of the following cytokines: interleukins 1α, 1β, 2, 6, and 10 (IL-1α, IL-1β, IL-2, IL-6, and IL-10), macrophage inhibitory factor (MIF), interferon gamma (IFN-γ), and transforming growth factor beta (TGF-β).

IL-6 = assay: cytokine expression by RT-PCR in PHA-stimulated lymphocytes: IL-6; settings: PHA + 12.5 μM, healthy cats (no PHA) = 1
Procedure: as §1

MIF = assay: cytokine expression by RT-PCR in PHA-stimulated lymphocytes: MIF; settings: PHA + 12.5 μM, healthy cats (no PHA) = 1
Procedure: as §1

IL-2 = assay: cytokine expression by RT-PCR in PHA-stimulated lymphocytes: IL-2; settings: PHA + 12.5 μM, healthy cats (no PHA) = 1
Procedure: as §1

IFN-γ = assay: cytokine expression by RT-PCR in PHA-stimulated lymphocytes: IFN-γ; settings: PHA + 12.5 μM, healthy cats (no PHA) = 1
Procedure: as §1

IL-1β = assay: cytokine expression by RT-PCR in PHA-stimulated lymphocytes: IL-1β; settings: PHA + 12.5 μM, healthy cats (no PHA) = 1
Procedure: as §1

IL-10 = assay: cytokine expression by RT-PCR in PHA-stimulated lymphocytes: IL-10; settings: PHA + 12.5 μM, healthy cats (no PHA) = 1
Procedure: as §1

TGF-β = assay: cytokine expression by RT-PCR in PHA-stimulated lymphocytes: TGF-β; settings: PHA + 12.5 μM, healthy cats (no PHA) = 1
Procedure: as §1

[2] = lymphocytes of cats with IBD, 7 μg/ml PHA + 12.5 μM fatty acid
[3] = lymphocytes of cats with IBD, 7 μg/ml PHA + 25 μM fatty acid
[4] = lymphocytes of healthy cats, 7 μg/ml PHA + 12.5 μM fatty acid
[5] = lymphocytes of healthy cats, 7 μg/ml PHA + 25 μM fatty acid

| SMILES | Lymphocyte Proliferation [1, 2] | Lymphocyte Proliferation [1, 3] | Lymphocyte Proliferation [1, 4] | Lymphocyte Proliferation [1, 5] | IL-1α expression (IL-1α; cats with IBD) | IL-1α expression (IL-1α; healthy cats) | IL-6 expression (IL-6; cats with IBD) | IL-6 expression (IL-6; healthy cats) | MIF expression (MIF; cats with IBD) | MIF expression (MIF; healthy cats) | IL-2 expression (IL-2; cats with IBD) | IL-2 expression (IL-2; healthy cats) | IFN-γ expression (IFN-γ; cats with IBD) | IFN-γ expression (IFN-γ; healthy cats) | IL-1β expression (IL-1β; cats with IBD) | IL-1β expression (IL-1β; healthy cats) | IL-10 expression (IL-10; cats with IBD) | IL-10 expression (IL-10; healthy cats) | TGF-β expression (TGF-β; cats with IBD) | TGF-β expression (TGF-β; healthy cats) |
| --- | --- | --- | --- | --- | --- | --- | --- | --- | --- | --- | --- | --- | --- | --- | --- | --- | --- | --- | --- | --- |
| CC/C=C\C/C=C\C/C=C\C/C=C\C/C=C\C/C=C\CCC(=O)O [DHA, docosahexaenoic acid] | 0.49 ± 0.15 | 0.45 ± 0.18 | 0.28 ± 0.19 | 0.25 ± 0.17 | 0.57 | 0.86 | 13.9 | 5.75 | 6.55 | 16.9 | 3 | 21.05 | 4.9 | 37.6 | 1.85 | 0.87 | 0.45 | 0.95 | 1.45 | 3.55 |
| CC/C=C\C/C=C\C/C=C\C/C=C\C/C=C\CCCC(=O)O [EPA, eicosapentaenoic acid] | 0.62 ± 0.27 | 0.63 ± 0.29 | 0.38 ± 0.23 | 0.37 ± 0.23 | 0.46 | 1.05 | 6.45 | 10.6 | 4.45 | 14.05 | 1.89 | 59.4 | 4.45 | 130.9 | 1.34 | 1.17 | 0.34 | 1.2 | 2.4 | 4.7 |

Reference: US9408817B2, “Methods for detecting inflammatory bowel disease in a feline” (Hill's Pet Nutrition, Inc., priority 2005, dated 2016)
